Where a SMILES comes first, the peptide text is derived from it. The star is where a group is joined. Cbz = O=C(OCc1ccccc1)*
System: MDA-7 protein in 2008/C*13 R cells
Experiment: Western blotting of MDA-7 protein expression
Type: cell-based, human
Details: 48 h, vs Ad-mda7 alone
Description: FIG. 4. MDA-7 protein expression is increased in CDDP-Resistant Ovarian tumor cells in a time-dependent and dose-dependent manner. FIG. 4A, Ovarian tumor cells (2008 and 2008/C*13 R) seeded in six-well plates were treated with PBS, Ad-luc or Ad-mda7 (3000 vp/cell). Cells were harvested on day 1 and day 2 after treatment and analyzed for MDA-7 protein expression by western blotting. […] Beta-actin was used as an internal loading control. FIG. 4B, Ovarian tumor cells (2008 and 2008/C*13 R) seeded in six-well plates were treated with different doses of Ad-mda7 (1000, 3000, 5000 or 7500 vp/cell). Untreated cells served as control. Cells were harvested on day 2 after treatment and analyzed for MDA-7 protein expression by western blotting. […] Beta-actin was used as an internal loading control. […] However, MDA-7 protein was higher in the supernatant of Ad-mda7-treated 2008/C*13 R cells compared to Ad-mda7-treated 2008 cells.
FIG. 11. […]
MDA-7 Protein Expression is Increased in CDDP-Resistant Ovarian Tumor Cells in a Time-dependent and Dose-Dependent Manner. […] Cells were harvested on day 1 and day 2 after treatment and analyzed for MDA-7 protein expression by western blotting. […] Cells were harvested on day 2 after treatment and analyzed for MDA-7 protein expression by western blotting. […]

Structure (SMILES): CC(C)C[C@@H](C=O)NC(=O)[C@H](CC(C)C)NC(=O)[C@H](CC(C)C)NC(=O)OCc1ccccc1 [MG132] (Cbz-Leu-Leu-Leu-aldehyde)
- MDA-7 protein expression with proteasome inhibitor: significantly increased
